Measured values reported in the NIST ThermoML archive (doi:10.1021/je300972a).

How the values were obtained:
[1] = refractive index (Na D-line) (dimensionless); xn = mol fraction of the nth substance listed; conditions: 101 kPa, Liquid, Standard Abbe refractometry, x1 = 1
[2] = xn = mol fraction of the nth substance listed; conditions: 101 kPa, Liquid, x1 = 1; for viscosity: Falling or rolling sphere viscometry; for mass density: Vibrating tube method
[3] = refractive index (Na D-line) (dimensionless); conditions: 101.33 kPa, Liquid, Standard Abbe refractometry
[4] = 101 kPa, Liquid; for viscosity: Falling or rolling sphere viscometry; for mass density: Vibrating tube method

CCCC[n+]1ccccc1.F[B-](F)(F)F [1-butylpyridinium tetrafluoroborate] + CCCC[n+]1ccc(C)cc1.O=S(=O)([N-]S(=O)(=O)C(F)(F)F)C(F)(F)F
Conditions | mass density, [2] [kg/m3] | refractive index, [1] | viscosity, [2] [mPa·s]
293.15 K | 1217.1 | 1.447 | 227.1
303.15 K | 1210.3 | 1.4444 | 123.6
313.15 K | 1203.5 | 1.4418 | 74.8
323.15 K | 1196.7 | 1.4392 | 48.1
333.15 K | 1189.9 | 1.4366 | 33
343.15 K | 1183.2 | 1.4341 | 23.8
353.15 K | 1176.5 | 1.4315 | 17.7

CCCC[n+]1ccc(C)cc1.O=S(=O)([N-]S(=O)(=O)C(F)(F)F)C(F)(F)F
Conditions | mass density, [4] [kg/m3] | refractive index, [3] | viscosity, [4] [mPa·s]
293.15 K | 1416.6 | 1.448 | 70.6
303.15 K | 1407.3 | 1.4449 | 45.2
313.15 K | 1398.1 | 1.4419 | 30.6
323.15 K | 1388.8 | 1.4388 | 21.8
333.15 K | 1379.7 | 1.4358 | 16.1
343.15 K | 1370.5 | 1.4328 | 12.3
353.15 K | 1361.5 | 1.4298 | 9.8

CCCC[n+]1ccccc1.F[B-](F)(F)F [1-butylpyridinium tetrafluoroborate]
Conditions | mass density, [4] [kg/m3] | refractive index, [3] | viscosity, [4] [mPa·s]
293.15 K | 1217.1 | 1.447 | 227.1
303.15 K | 1210.3 | 1.4444 | 123.6
313.15 K | 1203.5 | 1.4418 | 74.8
323.15 K | 1196.7 | 1.4392 | 48.1
333.15 K | 1189.9 | 1.4366 | 33
343.15 K | 1183.2 | 1.4341 | 23.8
353.15 K | 1176.5 | 1.4315 | 17.7
